Assay [1] has as its target isolated recombinant JAK2 kinase domain (Homo sapiens, UniProt O60674). Briefly: JAK enzyme assay (Caliper LabChip), JAK2 kinase domain. The settings on record: ATP 25 μM, 0.2 nM JAK2, Morrison tight binding model.
Description: JAK Enzyme Assays were Carried Out as Follows:
The activity of the isolated recombinant JAK1 and JAK2 kinase domain was measured by monitoring phosphorylation of a peptide derived from JAK3 ([sequence] fluorescently labeled on the N-terminus with 5-carboxyfluorescein) using the Caliper LabChip® technology (Caliper Life Sciences, Hopkinton, Mass.). […] Reactions were incubated at 22° C. in 384-well polypropylene microtiter plates for 30 minutes and then stopped by addition of 25 μL of an EDTA containing solution (100 mM HEPES buffer (pH 7.2), 0.015% Brij-35, 150 mM EDTA), resulting in a final EDTA concentration of 50 mM. After termination of the kinase reaction, the proportion of phosphorylated product was determined as a fraction of total peptide substrate using the Caliper LabChip® 3000 according to the manufacturer's specifications.
Assay [2] concerns JAK1-dependent STAT6 phosphorylation downstream of IL-13 stimulation, BEAS-2B cells. The experiment in a line: JAK1 pathway assay in cell lines: P-STAT6 in BEAS-2B cells + IL13. In kind it is cell-based. Conditions: Homo sapiens, BEAS-2B, 1 h, BEAS-2B human bronchial epithelial cells, 1 hr compound preincubation, read-out: P-STAT6 BEAS2B + IL13 IC50. The method, then:
JAK1 Pathway Assay in Cell Lines was Carried Out as Follows:
Inhibitor potency (EC50) was determined in cell-based assays designed to measure JAK1 dependent STAT phosphorylation. As noted above, inhibition of IL-4, IL-13, and IL-9 signaling by blocking the Jak/Stat signaling pathway can alleviate asthmatic symptoms in pre-clinical lung inflammation models (Mathew et al., 2001, J Exp Med 193(9): 1087-1096; Kudlacz et. al., 2008, Eur J. Pharmacol 582(1-3): 154-161).
In one assay approach, TF-1 human erythroleukemia cells obtained from the American Type Culture Collection (ATCC; Manassas, Va.) were used to measure JAK1-dependent STAT6 phosphorylation downstream of IL-13 stimulation. Prior to use in the assays, TF-1 cells were starved of GM-CSF overnight in OptiMEM medium (Life Technologies, Grand Island, N.Y.) supplemented with 0.5% charcoal/dextran stripped fetal bovine serum (FBS), 0.1 mM non-essential amino acids (NEAA), and 1 mM sodium pyruvate. The assays were run in 384-well plates in serum-free OptiMEM medium using 300,000 cells per well. In a second assay approach, BEAS-2B human bronchial epithelial cells obtained from ATCC were plated at 100,000 cells per well of a 96-well plate one day prior to the experiment. The BEAS-2B assay was run in complete growth medium (bronchial epithelial basal medium plus bulletkit; Lonza; Basel, Switzerland).
Test compounds were serially diluted 1:2 in DMSO and then diluted 1:50 in medium just before use. Diluted compounds were added to the cells, for a final DMSO concentration of 0.2%, and incubated for 30 m (for the TF-1 assay) or 1 hr (for the BEAS-2B assay) at 37° C. Then, cells were stimulated with human recombinant cytokine at their respective EC90 concentrations, as previously determined for each individual lot. Cells were stimulated with […] (R&D Systems, Minneapolis, Minn.) for 15 m/at 37° C. The TF-1 cell reactions were stopped by the direct addition of 10× lysis buffer (Cell Signaling Technologies, Danvers, Mass.), whereas the BEAS-2B cell incubations were halted by the removal of medium and addition of 1× lysis buffer. The resultant samples were frozen in the plates at −80° C. Compound mediated inhibition of STAT6 phosphorylation was measured in the cell lysates using MesoScale Discovery (MSD) technology (Gaithersburg, Md.). EC50 values were determined as the concentration of compound required for 50% inhibition of STAT phosphorylation relative to that measured for the DMSO control.

In assay [3] the target is isolated recombinant JAK1 kinase domain (Homo sapiens, UniProt P23458). The experiment in a line: JAK enzyme assay (Caliper LabChip), JAK1 kinase domain. It counts as biochemical. Conditions: ATP 25 μM; 1.5 nM JAK1; Morrison tight binding model.
Chain of isolated recombinant JAK1 kinase domain (P23458 875-1153 limits assumed): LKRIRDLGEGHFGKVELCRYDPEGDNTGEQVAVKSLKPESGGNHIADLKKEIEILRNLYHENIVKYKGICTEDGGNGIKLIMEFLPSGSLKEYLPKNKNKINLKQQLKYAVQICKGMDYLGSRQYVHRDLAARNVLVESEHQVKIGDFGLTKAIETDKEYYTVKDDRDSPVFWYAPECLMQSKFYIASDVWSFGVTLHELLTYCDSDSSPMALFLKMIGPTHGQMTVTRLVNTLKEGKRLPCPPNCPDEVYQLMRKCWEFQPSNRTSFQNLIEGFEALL

Chain of isolated recombinant JAK2 kinase domain (O60674 849-1124 limits assumed): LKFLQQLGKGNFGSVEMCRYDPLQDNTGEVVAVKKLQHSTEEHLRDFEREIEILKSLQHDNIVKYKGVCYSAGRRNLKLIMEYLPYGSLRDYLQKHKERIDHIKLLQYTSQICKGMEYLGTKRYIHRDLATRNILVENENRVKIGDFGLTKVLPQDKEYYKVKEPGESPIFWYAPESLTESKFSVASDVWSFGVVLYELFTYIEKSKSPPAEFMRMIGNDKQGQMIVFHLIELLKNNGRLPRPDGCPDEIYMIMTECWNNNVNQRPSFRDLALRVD

In the case of `Cn1cc(NC(=O)c2cnn3cccnc23)c(-c2cc(SC3COC3)ccc2OC(F)F)n1` [Example 15, N-[3-[2-(difluoromethoxy)-5-(oxetan-3-ylsulfanyl)phenyl]-1-methyl-pyrazol-4-yl]pyrazolo[1,5-a]pyrimidine-3-carboxamide], the Ki in assay [1] was found to be 0.13 nM. Moreover, in assay [2], the 50% inhibitory concentration (IC50) came out at 14 nM.
In the case of `O=C(Nc1c[nH]nc1-c1cc(SC2CCCCC2)ccc1OC(F)F)c1cnn2cccnc12` [Example 2, N-[3-[5-cyclohexylsulfanyl-2-(difluoromethoxy)phenyl]-1H-pyrazol-4-yl]pyrazolo[1,5-a]pyrimidine-3-carboxamide], the Ki in assay [3] stood at 0.67 nM; in assay [1], 0.28 nM. Besides, the IC50 in assay [2] stood at 43 nM.
As for `CC(CO)Sc1ccc(OC(F)F)c(-c2n[nH]cc2NC(=O)c2cnn3cccnc23)c1` (centres unmarked) [Example 4, N-[3-[2-(difluoromethoxy)-5-(2-hydroxy-1-methyl-ethyl)sulfanyl-phenyl]-1H-pyrazol-4-yl]pyrazolo[1,5-a]pyrimidine-3-carboxamide], the Ki was determined as 0.23 nM in assay [3] and 0.15 nM in assay [1]. Besides, the IC50 in assay [2] worked out at 35 nM.
The matching figures for `CNC(=O)Cn1cc(NC(=O)c2cnn3cccnc23)c(-c2cc(SC)ccc2OC(F)F)n1` [Example 45, N-[3-[2-(difluoromethoxy)-5-methylsulfanyl-phenyl]-1-[2-(methylamino)-2-oxo-ethyl]pyrazol-4-yl]pyrazolo[1,5-a]pyrimidine-3-carboxamide]: 0.21 nM, 0.21 nM and 8 nM.
Regarding `CSc1ccc(OC(F)F)c(-c2nn(CC(N)=O)cc2NC(=O)c2cnn3cccnc23)c1` [Example 27, N-[1-(2-amino-2-oxo-ethyl)-3-[2-(difluoromethoxy)-5-methylsulfanyl-phenyl]pyrazol-4-yl]pyrazolo[1,5-a]pyrimidine-3-carboxamide], the inhibition constant (Ki) stood at 0.29 nM in assay [3] and 0.1 nM in assay [1]. Besides, in assay [2], the concentration for half-maximal inhibition (IC50) is 12 nM.
The matching figures for `O=C(Nc1cn(CCO)nc1-c1cc(SC(CF)CF)ccc1OC(F)F)c1cnn2cccnc12` [Example 22, N-[3-[2-(difluoromethoxy)-5-[2-fluoro-1-(fluoromethyl)ethyl]sulfanyl-phenyl]-1-(2-hydroxyethyl)pyrazol-4-yl]pyrazolo[1,5-a]pyrimidine-3-carboxamide]: 0.32 nM, 0.19 nM and 18 nM.
The matching figures for `CN(C1CCN(C(=O)Cn2cc(NC(=O)c3cnn4cccnc34)c(-c3cc(SC4CCOCC4)ccc3OC(F)F)n2)CC1)C1COC1` [Example 6, N-[3-[2-(difluoromethoxy)-5-tetrahydropyran-4-ylsulfanyl-phenyl]-1-[2-[44-[methyl(oxetan-3-yl)amino]-1-piperidyl]-2-oxo-ethyl]pyrazol-4-yl]pyrazolo[1,5-a]pyrimidine-3-carboxamide]: 0.97 nM, 2.93 nM and 278 nM.
The matching figures for `CN(C)C(=O)Cn1cc(NC(=O)c2cnn3cccnc23)c(-c2cc([S+](C)[O-])ccc2OC(F)F)n1` (centres unmarked) [Example 48, N-(3-(2-(difluoromethoxy)-5-(methylsulfinyl)phenyl)-1-(2-(dimethylamino)-2-oxoethyl)-1H-pyrazol-4-yl)pyrazolo[1,5-a]pyrimidine-3-carboxamide]: 1.35 nM, 4.44 nM and 518 nM.
Consider `O=C(Nc1c[nH]nc1-c1cc(SC(F)(F)F)ccc1OC(F)F)c1cnn2cccnc12` [Example 5, N-[3-[2-(difluoromethoxy)-5-(trifluoromethylsulfanyl)phenyl]-1H-pyrazol-4-yl]pyrazolo[1,5-a]pyrimidine-3-carboxamide], for which the inhibition constant Ki turned out to be 0.5 nM in assay [3] and 0.21 nM in assay [1]. In assay [2], the half-maximal inhibitory concentration (IC50) stood at 6 nM.
Turning to `COC(=O)CSc1ccc(OC(F)F)c(-c2n[nH]cc2NC(=O)c2cnn3cccnc23)c1` [Example 43, methyl 2-[4-(difluoromethoxy)-3-[4-(pyrazolo[1,5-a]pyrimidine-3-carbonylamino)-1H-pyrazol-3-yl]phenyl]sulfanylacetate], the Ki in assay [3] turned out to be 0.32 nM; in assay [1], 0.15 nM. Besides, in assay [2], the 50% inhibitory concentration (IC50) is 37 nM.
The matching figures for `O=C(Nc1cn(C2CN(C3COC3)C2)nc1-c1cc(SC2COC2)ccc1OC(F)F)c1cnn2cccnc12` [Example 35, N-[3-[2-(difluoromethoxy)-5-(oxetan-3-ylsulfanyl)phenyl]-1-[1-(oxetan-3-yl)azetidin-3-yl]pyrazol-4-yl]pyrazolo[1,5-a]pyrimidine-3-carboxamide]: 1.14 nM, 0.9 nM and 42 nM.
For `CN(C)C(=O)Cn1cc(NC(=O)c2cnn3cccnc23)c(-c2cc(SC3COC3)ccc2OC(F)F)n1` [Example 26, N-[3-[2-(difluoromethoxy)-5-(oxetan-3-ylsulfanyl)phenyl]-1-[2-(dimethylamino)-2-oxo-ethyl]pyrazol-4-yl]pyrazolo[1,5-a]pyrimidine-3-carboxamide] the same measures were 0.32 nM, 0.93 nM and 34 nM.
On to `O=C(Nc1cn(Cc2cn(C3CCN([C@@H]4CCOC4)CC3)nn2)nc1-c1cc(SC2COC2)ccc1OC(F)F)c1cnn2cccnc12` (stereo in doubt) [Example 21, N-[3-[2-(difluoromethoxy)-5-(oxetan-3-ylsulfanyl)phenyl]-1-[[1-[1-[rac-(3R)-tetrahydrofuran-3-yl]-4-piperidyl]triazol-4-yl]methyl]pyrazol-4-yl]pyrazolo[1,5-a]pyrimidine-3-carboxamide], for which the inhibition constant Ki in assay [3] is 0.66 nM; in assay [1] it was 0.38 nM. The half-inhibitory concentration (IC50) in assay [2] is 57 nM.
For the molecule `C[C@H](O)Cn1cc(Sc2ccc(OC(F)F)c(-c3nn(CC(=O)N(C)C)cc3NC(=O)c3cnn4cccnc34)c2)cn1` [Example 46, (S)-N-(3-(2-(difluoromethoxy)-5-((1-(2-hydroxypropyl)-1H-pyrazol-4-yl)thio)phenyl)-1-(2-(dimethylamino)-2-oxoethyl)-1H-pyrazol-4-yl)pyrazolo[1,5-a]pyrimidine-3-carboxamide], the inhibition constant Ki in assay [3] was determined as 1.24 nM; in assay [1], 1.28 nM. The IC50 in assay [2] turned out to be 223 nM.
For `CN1CCCC(Sc2ccc(OC(F)F)c(-c3n[nH]cc3NC(=O)c3cnn4cccnc34)c2)C1` (single isomer, unassigned) [Example 31, N-[3-[2-(difluoromethoxy)-5-[(1-methyl-3-piperidyl)sulfanyl]phenyl]-1H-pyrazol-4-yl]pyrazolo[1,5-a]pyrimidine-3-carboxamide], the Ki in assay [3] is 9.73 nM; in assay [1], 3.47 nM.
Take `CSc1ccc(OC(F)F)c(-c2nn(C3CCOCC3)cc2NC(=O)c2cnn3cccnc23)c1` [Example 16, N-[3-[2-(difluoromethoxy)-5-methylsulfanyl-phenyl]-1-tetrahydropyran-4-yl-pyrazol-4-yl]pyrazolo[1,5-a]pyrimidine-3-carboxamide]: in assay [1], the Ki was 0.91 nM. For the same molecule, the IC50 in assay [2] worked out at 31 nM.
With `O=C(Nc1c[nH]nc1-c1cc(SC2CCOC2)ccc1OC(F)F)c1cnn2cccnc12` (centres unmarked) [Example 8, N-[3-[2-(difluoromethoxy)-5-tetrahydrofuran-3-ylsulfanyl-phenyl]-1H-pyrazol-4-yl]pyrazolo[1,5-a]pyrimidine-3-carboxamide], in assay [3], the inhibitory constant (Ki) amounted to 0.45 nM. For the same molecule, in assay [2], the IC50 came to 19 nM.
